molecular target: human wildtype CFTR (Homo sapiens, UniProt P13569); experiment: Fluorescence plate reader assay of iodide influx in FRT cells co-expressing CFTR and YFP halide sensor; conditions: not given
Sequence (P13569 whole entry): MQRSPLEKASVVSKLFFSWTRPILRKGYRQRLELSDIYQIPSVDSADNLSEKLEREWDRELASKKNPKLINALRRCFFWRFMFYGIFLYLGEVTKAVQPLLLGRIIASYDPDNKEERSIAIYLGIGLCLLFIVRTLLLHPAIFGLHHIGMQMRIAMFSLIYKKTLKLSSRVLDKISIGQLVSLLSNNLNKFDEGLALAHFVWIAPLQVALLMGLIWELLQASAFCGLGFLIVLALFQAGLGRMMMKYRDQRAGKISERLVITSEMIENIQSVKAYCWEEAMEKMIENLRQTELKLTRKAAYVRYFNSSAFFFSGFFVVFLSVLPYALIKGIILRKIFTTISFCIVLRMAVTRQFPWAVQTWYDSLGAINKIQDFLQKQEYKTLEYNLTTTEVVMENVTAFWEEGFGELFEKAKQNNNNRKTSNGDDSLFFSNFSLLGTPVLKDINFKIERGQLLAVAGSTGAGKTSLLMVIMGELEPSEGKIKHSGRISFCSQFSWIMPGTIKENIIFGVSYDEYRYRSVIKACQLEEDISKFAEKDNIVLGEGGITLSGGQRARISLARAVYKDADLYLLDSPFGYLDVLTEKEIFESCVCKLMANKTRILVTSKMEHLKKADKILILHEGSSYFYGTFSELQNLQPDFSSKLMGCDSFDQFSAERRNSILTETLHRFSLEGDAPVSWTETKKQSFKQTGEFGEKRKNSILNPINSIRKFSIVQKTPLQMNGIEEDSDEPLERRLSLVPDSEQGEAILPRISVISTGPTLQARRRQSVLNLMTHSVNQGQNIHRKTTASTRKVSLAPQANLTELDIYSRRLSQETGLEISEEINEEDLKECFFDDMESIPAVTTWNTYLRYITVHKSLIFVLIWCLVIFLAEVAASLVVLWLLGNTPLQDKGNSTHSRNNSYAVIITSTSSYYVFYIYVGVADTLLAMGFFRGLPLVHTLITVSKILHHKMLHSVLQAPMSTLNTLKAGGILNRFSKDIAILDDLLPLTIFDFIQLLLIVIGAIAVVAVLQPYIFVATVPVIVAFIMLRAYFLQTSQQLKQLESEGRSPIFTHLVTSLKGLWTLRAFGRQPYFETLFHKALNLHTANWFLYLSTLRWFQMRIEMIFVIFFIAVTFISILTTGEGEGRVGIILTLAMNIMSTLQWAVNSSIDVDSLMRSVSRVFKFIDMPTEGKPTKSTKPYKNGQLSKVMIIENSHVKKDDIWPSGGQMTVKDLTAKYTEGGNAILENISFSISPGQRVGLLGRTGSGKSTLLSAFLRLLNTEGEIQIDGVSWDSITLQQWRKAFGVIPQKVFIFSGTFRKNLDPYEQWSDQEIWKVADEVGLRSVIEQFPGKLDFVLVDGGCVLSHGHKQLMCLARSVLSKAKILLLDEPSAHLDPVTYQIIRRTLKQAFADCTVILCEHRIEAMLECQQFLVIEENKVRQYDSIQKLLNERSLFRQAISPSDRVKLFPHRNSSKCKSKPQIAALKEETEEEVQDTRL

With `Nc1ccc([N+](=O)[O-])cc1-c1nc2cccc3c2n(c1=O)C(c1ccccc1)CO3` (centres unmarked) [Compound 20, 6-(2-Amino-5-nitrophenyl)-3-phenyl-2,3-dihydro-5H-[1,4]oxazino[4,3,2-de]quinoxalin-5-one] as the molecule, how does the EC50 read?
Its EC50 is greater than 10 µM.

`CC(=O)Nc1ccc(C)cc1-c1nc2ccccc2n(Cc2ccccc2)c1=O` [CFTRact-J060] was tested. Which EC50 did it give?
Its EC50 is greater than 25 µM.

Which EC50 does the source give for `Fc1ccc2nc3n(Cc4ccccc4)c4ccc(C(F)(F)F)cc4nc-3c2c1` [Compound 22] here?
The EC50 was greater than 10 µM.

How did the EC50 turn out when `N#Cc1ccccc1Cn1c(=O)c(-c2cc(I)ccc2N)nc2ccccc21` [CFTRact-J144, 3-(2-Amino-5-iodophenyl)-1-(2-cyanobenzyl)quinoxalin-2(1H)-one] was run?
Its EC50 is greater than 25 µM.

With `Cc1ccc2c(c1)nc(-c1cc(I)ccc1N)c(=O)n2Cc1ccccc1` [CFTRact-J141, 3-(2-Amino-5-iodophenyl)-1-benzyl-6-methylquinoxalin-2(1H)-one] as the molecule, how does the EC50 read?
The EC50 was 0.47 µM.

`Cc1ccc2c(c1)nc(-c1c(N)cccc1Br)c(=O)n2Cc1ccccc1` [CFTRact-J139, 3-(2-Amino-6-bromophenyl)-1-benzyl-6-methylquinoxalin-2(1H)-one] was tested. Which EC50 did it give?
Its EC50 is 0.65 µM.

Which EC50 does the source give for `Cc1cc2nc(-c3cccc([N+](=O)[O-])c3)c(=O)n(Cc3ccccc3)c2cc1C` [Compound 2i, 1-Benzyl-6,7-dimethyl-3-(3-nitrophenyl)quinoxalin-2(1H)-one] here?
Its EC50 is greater than 10 µM.

For `CC(=O)Nc1ccccc1-c1nc2ccccc2n(Cc2cccc(Br)c2)c1=O` [CFTRact-J059], which EC50 is on record?
The EC50 was roughly 19 µM.

With `Cn1c(=O)c(-c2cc([N+](=O)[O-])ccc2N)nc2ccccc21` [CFTRact-J052] as the molecule, how does the “CFTR activity of commercial analogs relative to CFTRact-J027” value read?
The value was “greatly reduced activity”.

How did the EC50 turn out when `Nc1ccc([N+](=O)[O-])cc1-c1nc2cc(F)ccc2n(Cc2ccccc2)c1=O` [CFTRact-J105, 3-(2-Amino-5-nitrophenyl)-1-benzyl-6-fluoroquinoxalin-2(1H)-one] was run?
The EC50 was 0.53 µM.

How did the EC50 turn out when `CC(=O)Nc1ccc([N+](=O)[O-])cc1-c1nc2ccccc2n(Cc2ccccc2)c1=O` [CFTRact-J109, N-(2-(4-Benzyl-3-oxo-3,4-dihydroquinoxalin-2-yl)-4-nitrophenyl)-acetamide] was run?
Its EC50 is 1.5 µM.

With `Cc1cccc2nc(-c3cccc([N+](=O)[O-])c3)c(=O)n(Cc3ccccc3)c12` [Compound 2h, 1-Benzyl-8-methyl-3-(3-nitrophenyl)quinoxalin-2(1H)-one] as the molecule, how does the EC50 read?
Its EC50 is greater than 10 µM.

`O=c1c(-c2cccc([N+](=O)[O-])c2)nc2cc(F)c(F)cc2n1Cc1ccccc1` [Compound 2g, 1-Benzyl-6,7-difluoro-3-(3-nitrophenyl)quinoxalin-2(1H)-one] was tested. Which EC50 did it give?
Its EC50 is greater than 10 µM.

`Nc1ccc(C(=O)O)cc1-c1nc2ccccc2n(Cc2ccccc2)c1=O` [Compound 1k, 4-Amino-3-(4-benzyl-3-oxo-3,4-dihydroquinoxalin-2-yl)benzoic acid] was tested. Which EC50 did it give?
The EC50 was greater than 10 µM.

With `Nc1ccc(Br)cc1-c1nc2ccccc2n(Cc2ccccc2)c1=O` [CFTRact-J134, 3-(2-Amino-5-bromophenyl)-1-benzylquinoxalin-2(1H)-one] as the molecule, how does the EC50 read?
The EC50 was 0.31 µM.

How did the EC50 turn out when `COC(=O)c1ccc(N)c(-c2nc3ccccc3n(Cc3ccccc3)c2=O)c1` [Compound 1j, Methyl 4-amino-3-(4-benzyl-3-oxo-3,4-dihydroquinoxalin-2-yl)benzoate] was run?
Its EC50 is 1 µM.

With `Nc1ccc(I)cc1-c1nc2ccccc2n(Cc2ccccc2[N+](=O)[O-])c1=O` [CFTRact-J143, 3-(2-Amino-5-iodophenyl)-1-(2-nitrobenzyl)quinoxalin-2(1H)-one] as the molecule, how does the EC50 read?
Its EC50 is greater than 25 µM.

With `O=c1c(-c2cc(Br)ccc2NCc2ccccc2)nc2ccccc2n1Cc1ccccc1` [CFTRact-J056] as the molecule, how does the “CFTR activity of commercial analogs relative to CFTRact-J027” value read?
The value was “greatly reduced activity”.

And the EC50?
Its EC50 is roughly 15 µM.

For `O=C(O)c1ccc([N+](=O)[O-])c(-c2nc3ccccc3n(Cc3ccccc3)c2=O)c1` [Compound 1b, 3-(4-Benzyl-3-oxo-3,4-dihydroquinoxalin-2-yl)-4-nitrobenzoic acid], which EC50 is on record?
Its EC50 is greater than 10 µM.

`Nc1ccc([N+](=O)[O-])cc1-c1nc2ccccc2n(Cc2ccccc2Br)c1=O` [CFTRact-J104, 3-(2-Amino-5-nitrophenyl)-1-(2-bromobenzyl)quinoxalin-2(1H)-one] was tested. Which EC50 did it give?
The EC50 was 7.3 µM.

same assay, conditions: plate reader assay

How did the “EC50, variation in the N1-substituent” value turn out when `O=c1c(-c2cccc([N+](=O)[O-])c2)nc2ccccc2n1Cc1cccc2ccccc12` [Compound 3f, 1-(Naphthalen-1-ylmethyl)-3-(3-nitrophenyl)quinoxalin-2(1H)-one] was run?
Its value is “EC50 = Inactive”.

same assay, conditions: read-out: EC50, constrained ring analogs; plate reader assay

`CC(=O)Nc1ccc([N+](=O)[O-])cc1-c1nc2cccc3c2n(c1=O)CCO3` [Compound 16, N-(4-nitro-2-(5-oxo-2,3-dihydro-5H-[1,4]oxazino[4,3,2-de]quinoxalin-6-yl)phenyl) acetamide] was tested. Which EC50 did it give?
Its EC50 is 0.82 µM.

same assay, conditions: read-out: EC50, variation in the 3-aryl ring; plate reader assay

For `O=c1c(-c2ccc([N+](=O)[O-])cc2)nc2ccccc2n1Cc1ccccc1` [Compound 1e, 1-Benzyl-3-(4-nitrophenyl)quinoxalin-2(1H)-one], which EC50 is on record?
The EC50 was 1 µM.

With `O=c1c(-c2ccccc2)nc2ccccc2n1Cc1ccccc1` [Compound 1h, 1-Benzyl-3-phenylquinoxalin-2(1H)-one] as the molecule, how does the EC50 read?
The EC50 was 5 µM.

Which EC50 does the source give for `O=c1c(-c2ccc(C(F)(F)F)cc2)nc2ccccc2n1Cc1ccccc1` [Compound 1f, 1-Benzyl-3-(4-(trifluoromethyl)phenyl)quinoxalin-2(1H)-one] here?
Its EC50 is 1 µM.

With `O=c1c(-c2cccc(Br)c2)nc2ccccc2n1Cc1ccccc1` [Compound 1g, 1-Benzyl-3-(3-bromophenyl)quinoxalin-2(1H)-one] as the molecule, how does the EC50 read?
The EC50 was 0.33 µM.

`COC(=O)c1ccc(N)c(-c2nc3ccccc3n(Cc3ccccc3)c2=O)c1` [Compound 1j, Methyl 4-amino-3-(4-benzyl-3-oxo-3,4-dihydroquinoxalin-2-yl)benzoate] was tested. Which EC50 did it give?
Its EC50 is 0.55 µM.

How did the EC50 turn out when `O=c1c(-c2ccc3nonc3c2)nc2ccccc2n1Cc1ccccc1` [Compound 1m, 3-(Benzo[c][1,2,5]oxadiazol-5-yl)-1-benzylquinoxalin-2(1H)-one] was run?
Its EC50 is 0.018 µM.

With `O=c1c(-c2ccccc2[N+](=O)[O-])nc2ccccc2n1Cc1ccccc1` [Compound 1d, 1-Benzyl-3-(2-nitrophenyl)quinoxalin-2(1H)-one] as the molecule, how does the EC50 read?
The EC50 was 1 µM.

same assay, conditions: read-out: EC50, variation in the N1-substituent; plate reader assay

How did the EC50 turn out when `O=c1c(-c2cccc([N+](=O)[O-])c2)nc2ccccc2n1Cc1ccco1` [Compound 3i, 1-(Furan-2-ylmethyl)-3-(3-nitrophenyl)quinoxalin-2(1H)-one] was run?
The EC50 was 0.02 µM.

For `CCn1c(=O)c(-c2cccc([N+](=O)[O-])c2)nc2ccccc21` [Compound 3c, 1-Ethyl-3-(3-nitrophenyl)quinoxalin-2(1H)-one], which EC50 is on record?
Its EC50 is 0.065 µM.

With `O=c1c(-c2cccc([N+](=O)[O-])c2)nc2ccccc2n1Cc1ccccn1` [Compound 3h, 3-(3-Nitrophenyl)-1-(pyridin-2-ylmethyl)quinoxalin-2(1H)-one] as the molecule, how does the EC50 read?
The EC50 was 0.052 µM.

With `O=c1c(-c2cccc([N+](=O)[O-])c2)nc2ccccc2n1Cc1ccc2ccccc2c1` [Compound 3g, 1-(Naphthalen-2-ylmethyl)-3-(3-nitrophenyl)quinoxalin-2(1H)-one] as the molecule, how does the EC50 read?
The EC50 was 4.3 µM.

`C=CCn1c(=O)c(-c2cccc([N+](=O)[O-])c2)nc2ccccc21` [Compound 3e, 1-Allyl-3-(3-nitrophenyl)quinoxalin-2(1H)-one] was tested. Which EC50 did it give?
Its EC50 is 0.055 µM.

same assay, conditions: read-out: EC50, variation in the quinoxalinone core; plate reader assay

`O=c1c(-c2cccc([N+](=O)[O-])c2)nc2cc(Cl)ccc2n1Cc1ccccc1` [Compound 2b, 1-Benzyl-6-chloro-3-(3-nitrophenyl)quinoxalin-2(1H)-one] was tested. Which EC50 did it give?
Its EC50 is 0.07 µM.

Which EC50 does the source give for `O=c1c(-c2cccc([N+](=O)[O-])c2)nc2c(Cl)cccc2n1Cc1ccccc1` [Compound 2c, 1-Benzyl-5-chloro-3-(3-nitrophenyl)quinoxalin-2(1H)-one] here?
The EC50 was 0.11 µM.

`O=c1c(-c2cccc([N+](=O)[O-])c2)nc2ccc(Cl)cc2n1Cc1ccccc1` [Compound 2a, 1-Benzyl-7-chloro-3-(3-nitrophenyl)quinoxalin-2(1H)-one] was tested. Which EC50 did it give?
The EC50 was 0.76 µM.
